# Test system: bone marrow-derived stem cells (MSCs)
# Assay: culture of bone marrow-derived stem cells (MSCs) with cartilage fragments, with or without TGF-β1
# Format: cell-based, horse
# Experimental: Bone marrow aspirates were obtained from the tuber coxae of 3 normal horses (3-years-old) to attain bone marrow-derived stem cells (MSCs). Aspirates were cultured in media, pre-plated for purification, and grown in monolayer culture flasks for 2-3 weeks until a confluent monolayer culture of MSCs was obtained. Confluent monolayers were expanded for another 2-3 weeks until a minimum of 26×10^6 cells were attained.
# Cartilage was collected sterilely from the same horses and freeze-thawed 3 times to ensure all native cells within the cartilage were dead. Prior to the start of the experiment the cartilage was placed in liquid nitrogen and pulverized until it became a fine powder. Then the cartilage was weighed into aliquots to make 2.5% and 10% of cartilage weight to volume in media.
# A 24-well, non-adherent plate contained treatment groups of 1×10^6 cells only, 1×10^6 cells with 2.5% cartilage, 1×10^6 cells with 10% cartilage, 2.5% cartilage only, and 10% cartilage only to make 5 treatment groups. The cells-only treatment group was the baseline positive control. The 2.5% and 10% cartilage fragments without cells served as the negative controls and, if necessary, for baseline values of proteoglycan and DNA content of the matrix provided. […]
substance,measurement,setting,value
"TGF-β1: transforming growth factor β type 1, growth factor supplemented to media at 5 ng/ml",MSC survival and chondrogenesis,,necessary
same,DNA content by day 14,"day 14, 5 ng/ml TGF-β1",significantly increasing
